According to patent publication USRE49050E1, “Traditional Chinese medicine composition, and preparation and application thereof” (Tasly Pharmaceutical Group Co., Ltd., priority 2013, dated 2022):

Experiments:
Type in all cases: in vivo
[1] = test system: AA-induced platelet aggregation; assay: Platelet aggregation rate trial in rabbits, AA-induced; settings: AA 80 μg/ml; dose 60 mg/kg intragastric once a day for 7 days; n = 8
Description: (§1) The rabbits were randomly grouped into 4 groups: the model group was given with distilled water, the aspirin group ([…]), Extract A groups of low dose and high dose at 42 and 84 mg/kg (respectively 1 2 times of clinic equivalent dosage), intragastrically administrated, once a day for 7 consecutive days. The volume of medicine administrated was 1 ml/kg body weight. 60 min after intragastric administration on 7th day, the animals were anesthetized locally, blooded through carotid artery, anticoagulated with sodium citrate (3.8%) 1:9 and centrifugated at 1000 r/min for 10 min. Platelet-rich plasma (PRP) was taken and the remain centrifugated at 3000 r/min to take platelet-poor plasma (PPP. Aggregation was induced by ADP (final concentration 3 μg/ml), AA (final concentration 80 μg/ml) and collagen ([…]). […] platelet aggregation & coagulation factor analyzer was used to measure the maximum platelet aggregation rate and to calculate inhibition rate according to following formula. [formula] Results

[2] = test system: collagen-induced platelet aggregation; assay: Platelet aggregation rate trial in rabbits, collagen-induced; settings: dose 60 mg/kg intragastric once a day for 7 days, n = 8
Description: as §1

[3] = test system: ADP-induced platelet aggregation; assay: Platelet aggregation rate trial in rabbits, ADP-induced; settings: ADP 3 μg/ml; dose 60 mg/kg intragastric once a day for 7 days; n = 8
Description: as §1

SMILES: CC(=O)Oc1ccccc1C(=O)O [Aspirin]
- Platelet aggregation rate [1]: 6.13 ± 2.03 %
- Platelet aggregation rate [2]: 6.23 ± 2.41 %
- Platelet aggregation rate [3]: 18.96 ± 4.11 %
